This is an account of results in ChEMBL document CHEMBL1142675, “CH...O and CH...N hydrogen bonds in ligand design: a novel quinazolin-4-ylthiazol-2-ylamine protein kinase inhibitor” (J Med Chem, 2005).

The test addresses Glycogen synthase kinase-3 (Homo sapiens, UniProt P49840+P49841). As to the kind of experiment: Inhibition of Glycogen synthase kinase-3. In kind it is protein assay.

In the case of `Cc1cc(Nc2nc(-c3ccccc3)nc3ccccc23)no1`, the Ki was above 2000 nM.

Consider `Cc1cc(Nc2cc(-c3ccccc3)nc3ccccc23)[nH]n1`, for which the inhibitory constant (Ki) was determined as 2500 nM.

Turning to `Cc1n[nH]c(Nc2nc(-c3ccccc3)nc3ccccc23)n1`, the inhibition constant (Ki) came out at 23000 nM. In the case of `Cc1cnc(Nc2nc(-c3ccccc3)nc3ccccc23)s1`, the inhibition constant (Ki) came to 150 nM. `c1ccc(-c2nc(Nc3cc[nH]n3)c3ccccc3n2)cc1` had a Ki of 110 nM.

Compound `Cc1cc(Nc2nc(-c3ccccc3)nc3ccccc23)n[nH]1` registered an inhibition constant Ki of 24 nM.

Compound `c1ccc(-c2nc(Nc3nc[nH]n3)c3ccccc3n2)cc1` returned a Ki of 250 nM.
